Measured values: ChEMBL document CHEMBL3853343, “Discovery of novel 2',4'-dimethyl-[4,5'-bithiazol]-2-yl amino derivatives as orally bioavailable TRPV4 antagonists for the treatment of pain: Part 2” (Bioorg Med Chem Lett, 2016)

What was measured:
[1] = Metabolic stability in rat hepatocytes assessed as parent compound remaining after 1 hr; type: ADME, cell-based, Hepatocyte; conditions: read-out: Stability
[2] = Tmax in guinea pig at 20 mg/kg, po; type: ADME, organism-based, Cavia porcellus; conditions: in vivo
[3] = Total clearance in rat at 0.5 mg/kg, iv; type: ADME, organism-based; conditions: in vivo
[4] = Oral bioavailability in rat at 1 mg/kg; type: ADME, organism-based; conditions: in vivo
[5] = Plasma concentration in Dunkin-Hartley guinea pig complete Freund's adjuvant-induced mechanical hyperalgesia model at 1 mg/kg, po after 5 hrs; type: ADME, organism-based, Cavia porcellus
Cytochrome P450 2C19 = Cytochrome P450 2C19 (Homo sapiens, UniProt P33261); assay: Inhibition of CYP2C19 (unknown origin); type: ADME
Rattus norvegicus [6] = assay: Analgesic activity in rat assessed as reversal of complete Freund's adjuvant-induced mechanical hyperalgesia at 30 mg/kg, po after 5 hrs relative to control; type: functional
[7] = Protein binding in rat; type: ADME; conditions: read-out: PB
Cytochrome P450 2D6 = Cytochrome P450 2D6 (Homo sapiens, UniProt P10635); assay: Inhibition of CYP2D6 (unknown origin); type: ADME
Cytochrome P450 3A4 = Cytochrome P450 3A4 (Homo sapiens, UniProt P08684); assay: Inhibition of CYP3A4 (unknown origin); type: ADME
Rattus norvegicus [8] = assay: Analgesic activity in rat assessed as reversal of complete Freund's adjuvant-induced mechanical hyperalgesia at 10 mg/kg, po after 5 hrs relative to control; type: functional
Rattus norvegicus [9] = assay: Analgesic activity in rat assessed as reversal of complete Freund's adjuvant-induced mechanical hyperalgesia at 10 mg/kg, po after 1 hr relative to control; type: functional
[10] = Total clearance in guinea pig at 1 mg/kg, iv; type: ADME, organism-based, Cavia porcellus; conditions: in vivo
[11] = target: T1, Transient receptor potential cation channel subfamily V member 4 (Rattus norvegicus, UniProt Q9ERZ8); assay: Antagonist activity at rat TRPV4 assessed as inhibition of hypotonicity-induced activation
[12] = Cmax in guinea pig at 20 mg/kg, po measured 12 hrs post dose; type: ADME, organism-based, Cavia porcellus; parameters: dose 20 mg/kg, route oral; conditions: in vivo
[13] = AUC in guinea pig at 20 mg/kg, po; type: ADME, organism-based, Cavia porcellus; conditions: in vivo
[14] = Half life in rat at 0.5 mg/kg, iv; type: ADME, organism-based; conditions: in vivo
[15] = Plasma concentration in Dunkin-Hartley guinea pig complete Freund's adjuvant-induced mechanical hyperalgesia model at 3 mg/kg, po after 5 hrs; type: ADME, organism-based, Cavia porcellus
Cavia porcellus [16] = assay: Analgesic activity in Dunkin-Hartley guinea pig complete Freund's adjuvant-induced mechanical hyperalgesia model assessed as reversal in paw withdrawal threshold at 1 mg/kg, po after 5 hrs relative to control; type: functional
[17] = Stability in rat liver microsomes assessed as parent compound remaining after 30 mins in presence or absence of NADPH; type: ADME, microsome; conditions: read-out: Stability
[18] = Oral bioavailability in guinea pig at 20 mg/kg; type: ADME, organism-based, Cavia porcellus; conditions: in vivo
[19] = AUC in rat at 1 mg/kg, po; type: ADME, organism-based; conditions: in vivo
Cytochrome P450 2C9 = Cytochrome P450 2C9 (Homo sapiens, UniProt P11712); assay: Inhibition of CYP2C9 (unknown origin); type: ADME
Cytochrome P450 1A2 = target: T2, Cytochrome P450 1A2 (Homo sapiens, UniProt P05177); assay: Inhibition of CYP1A2 (unknown origin); type: ADME
T2 sequence (P05177 whole entry): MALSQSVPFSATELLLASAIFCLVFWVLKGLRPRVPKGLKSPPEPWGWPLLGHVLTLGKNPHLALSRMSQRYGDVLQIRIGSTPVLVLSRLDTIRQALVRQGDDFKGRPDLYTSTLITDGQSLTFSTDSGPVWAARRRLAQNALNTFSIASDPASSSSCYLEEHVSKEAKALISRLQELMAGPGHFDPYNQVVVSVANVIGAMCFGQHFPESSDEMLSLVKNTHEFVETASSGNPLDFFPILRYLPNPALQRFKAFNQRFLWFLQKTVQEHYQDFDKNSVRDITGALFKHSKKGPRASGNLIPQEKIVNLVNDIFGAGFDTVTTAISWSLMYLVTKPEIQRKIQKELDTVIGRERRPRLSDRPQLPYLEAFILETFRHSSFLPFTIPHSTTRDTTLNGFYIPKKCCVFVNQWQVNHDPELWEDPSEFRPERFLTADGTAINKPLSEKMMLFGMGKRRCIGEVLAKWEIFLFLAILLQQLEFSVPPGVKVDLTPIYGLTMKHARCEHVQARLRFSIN

Cavia porcellus [20] = assay: Analgesic activity in Dunkin-Hartley guinea pig complete Freund's adjuvant-induced mechanical hyperalgesia model assessed as reversal in paw withdrawal threshold at 3 mg/kg, po after 5 hrs relative to control; type: functional
[21] = Protein binding in guinea pig; type: ADME, Cavia porcellus; conditions: read-out: PB (converted)
[22] = Tmax in rat at 1 mg/kg, po; type: ADME, organism-based; conditions: in vivo
[23] = Antagonist activity at guinea pig TRPV4 assessed as inhibition of 4alpha-PDD-induced activation; parameters: species or system Cavia porcellus
[24] = Half life in guinea pig at 1 mg/kg, iv; type: ADME, organism-based, Cavia porcellus; conditions: in vivo
[25] = Antagonist activity at guinea pig TRPV4 assessed as inhibition of hypotonicity-induced activation; parameters: species or system Cavia porcellus
Cavia porcellus [26] = assay: Analgesic activity in Dunkin-Hartley guinea pig complete Freund's adjuvant-induced mechanical hyperalgesia model assessed as reversal in paw withdrawal threshold at 10 mg/kg, po after 5 hrs relative to control; type: functional
Rattus norvegicus [27] = assay: Analgesic activity in rat assessed as reversal of complete Freund's adjuvant-induced mechanical hyperalgesia at 30 mg/kg, po after 1 hr relative to control; type: functional
[28] = Protein binding in human; type: ADME; conditions: read-out: PB
[29] = Metabolic stability in guinea pig hepatocytes assessed as parent compound remaining after 1 hr; type: ADME, cell-based, Cavia porcellus, Hepatocyte; conditions: read-out: Stability
[30] = Stability in human liver microsomes assessed as parent compound remaining after 30 mins in presence or absence of NADPH; type: ADME, microsome; conditions: read-out: Stability
[31] = Volume of distribution at steady state in rat at 0.5 mg/kg, iv; type: ADME, organism-based; conditions: in vivo, read-out: Vdss
[32] = Plasma concentration in Dunkin-Hartley guinea pig complete Freund's adjuvant-induced mechanical hyperalgesia model at 10 mg/kg, po after 5 hrs; type: ADME, organism-based, Cavia porcellus
Salmonella typhimurium = assay: Genotoxicity in Salmonella typhimurium by Ames test; type: toxicity, organism-based; conditions: salmonella enterica subsp. enterica serovar typhimurium
[33] = Volume of distribution at steady state in guinea pig at 1 mg/kg, iv; type: ADME, organism-based, Cavia porcellus; conditions: in vivo, read-out: Vdss
[34] = Cmax in rat at 1 mg/kg, po; type: ADME, organism-based; parameters: dose 1 mg/kg, route oral; conditions: in vivo
Rattus norvegicus [35] = assay: Analgesic activity in rat assessed as reversal of complete Freund's adjuvant-induced mechanical hyperalgesia at 10 mg/kg, po after 3 hrs relative to control; type: functional
[36] = Metabolic stability in human hepatocytes assessed as parent compound remaining after 1 hr; type: ADME, cell-based, Hepatocyte; conditions: read-out: Stability
Rattus norvegicus [37] = assay: Analgesic activity in rat assessed as reversal of complete Freund's adjuvant-induced mechanical hyperalgesia at 30 mg/kg, po after 3 hrs relative to control; type: functional
[38] = target: T1, Transient receptor potential cation channel subfamily V member 4; assay: Antagonist activity at rat TRPV4 assessed as inhibition of 4alpha-PDD-induced activation

T1 sequence (Q9ERZ8 whole entry): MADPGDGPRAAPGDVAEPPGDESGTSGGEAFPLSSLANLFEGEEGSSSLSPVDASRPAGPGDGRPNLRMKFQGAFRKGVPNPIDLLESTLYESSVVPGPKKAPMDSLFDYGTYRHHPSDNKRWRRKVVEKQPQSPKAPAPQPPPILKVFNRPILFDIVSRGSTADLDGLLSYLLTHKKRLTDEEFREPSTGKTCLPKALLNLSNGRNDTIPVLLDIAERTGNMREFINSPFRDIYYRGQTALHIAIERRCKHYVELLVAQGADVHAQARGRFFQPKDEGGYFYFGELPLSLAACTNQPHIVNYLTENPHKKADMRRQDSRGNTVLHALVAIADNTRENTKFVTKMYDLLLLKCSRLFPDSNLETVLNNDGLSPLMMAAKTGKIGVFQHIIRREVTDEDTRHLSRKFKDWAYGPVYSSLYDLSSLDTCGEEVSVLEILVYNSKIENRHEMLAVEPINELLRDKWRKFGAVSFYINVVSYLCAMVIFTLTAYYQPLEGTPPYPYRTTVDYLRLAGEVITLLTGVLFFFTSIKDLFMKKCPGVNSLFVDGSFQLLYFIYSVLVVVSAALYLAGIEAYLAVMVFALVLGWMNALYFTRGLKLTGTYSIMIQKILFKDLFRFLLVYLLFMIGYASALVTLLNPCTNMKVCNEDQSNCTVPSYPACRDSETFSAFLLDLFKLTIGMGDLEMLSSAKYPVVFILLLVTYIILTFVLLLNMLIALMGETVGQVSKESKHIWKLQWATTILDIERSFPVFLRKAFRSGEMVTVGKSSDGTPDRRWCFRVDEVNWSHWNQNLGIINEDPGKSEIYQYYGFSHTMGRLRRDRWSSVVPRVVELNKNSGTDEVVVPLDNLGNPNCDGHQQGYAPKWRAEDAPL
Sequence of Cytochrome P450 2C19 (P33261 whole entry): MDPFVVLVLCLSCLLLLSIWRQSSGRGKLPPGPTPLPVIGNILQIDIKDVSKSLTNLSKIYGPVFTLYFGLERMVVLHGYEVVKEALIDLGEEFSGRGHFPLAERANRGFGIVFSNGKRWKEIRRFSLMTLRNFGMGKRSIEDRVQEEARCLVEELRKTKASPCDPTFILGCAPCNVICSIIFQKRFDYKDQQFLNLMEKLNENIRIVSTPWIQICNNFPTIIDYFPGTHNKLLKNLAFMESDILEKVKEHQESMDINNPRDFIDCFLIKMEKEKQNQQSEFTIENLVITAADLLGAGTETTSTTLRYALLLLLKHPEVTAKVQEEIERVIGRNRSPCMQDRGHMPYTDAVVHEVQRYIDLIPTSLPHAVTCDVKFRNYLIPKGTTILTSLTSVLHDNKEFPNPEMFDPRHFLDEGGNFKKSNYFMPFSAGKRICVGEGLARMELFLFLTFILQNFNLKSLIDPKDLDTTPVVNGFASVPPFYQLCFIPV
Sequence of Cytochrome P450 2C9 (P11712 whole entry): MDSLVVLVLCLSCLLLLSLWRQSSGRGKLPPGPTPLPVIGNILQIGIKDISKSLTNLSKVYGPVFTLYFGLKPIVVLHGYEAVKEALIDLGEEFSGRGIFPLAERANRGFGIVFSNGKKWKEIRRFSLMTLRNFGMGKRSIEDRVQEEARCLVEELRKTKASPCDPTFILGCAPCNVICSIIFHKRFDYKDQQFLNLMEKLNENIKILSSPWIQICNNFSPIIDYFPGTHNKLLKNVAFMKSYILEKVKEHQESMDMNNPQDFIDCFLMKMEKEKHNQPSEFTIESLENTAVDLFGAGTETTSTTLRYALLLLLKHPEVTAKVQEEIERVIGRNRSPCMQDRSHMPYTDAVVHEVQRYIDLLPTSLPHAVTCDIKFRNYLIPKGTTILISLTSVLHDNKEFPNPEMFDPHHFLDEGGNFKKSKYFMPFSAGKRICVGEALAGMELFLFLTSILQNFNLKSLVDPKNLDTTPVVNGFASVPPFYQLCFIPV
Sequence of Cytochrome P450 3A4 (P08684 whole entry): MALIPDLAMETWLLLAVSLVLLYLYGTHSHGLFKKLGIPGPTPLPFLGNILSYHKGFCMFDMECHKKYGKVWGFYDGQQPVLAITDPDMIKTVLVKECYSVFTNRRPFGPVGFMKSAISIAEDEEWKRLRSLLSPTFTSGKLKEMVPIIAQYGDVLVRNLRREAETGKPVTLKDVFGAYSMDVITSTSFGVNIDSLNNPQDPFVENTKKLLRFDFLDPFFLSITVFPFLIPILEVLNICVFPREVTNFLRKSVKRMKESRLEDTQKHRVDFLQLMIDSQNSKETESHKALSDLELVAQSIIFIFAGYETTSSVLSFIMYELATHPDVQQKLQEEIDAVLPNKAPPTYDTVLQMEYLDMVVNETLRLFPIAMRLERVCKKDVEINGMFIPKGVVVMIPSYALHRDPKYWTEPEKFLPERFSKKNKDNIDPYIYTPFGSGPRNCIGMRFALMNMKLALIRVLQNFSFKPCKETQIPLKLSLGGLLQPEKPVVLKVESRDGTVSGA
Sequence of Cytochrome P450 2D6 (P10635 whole entry): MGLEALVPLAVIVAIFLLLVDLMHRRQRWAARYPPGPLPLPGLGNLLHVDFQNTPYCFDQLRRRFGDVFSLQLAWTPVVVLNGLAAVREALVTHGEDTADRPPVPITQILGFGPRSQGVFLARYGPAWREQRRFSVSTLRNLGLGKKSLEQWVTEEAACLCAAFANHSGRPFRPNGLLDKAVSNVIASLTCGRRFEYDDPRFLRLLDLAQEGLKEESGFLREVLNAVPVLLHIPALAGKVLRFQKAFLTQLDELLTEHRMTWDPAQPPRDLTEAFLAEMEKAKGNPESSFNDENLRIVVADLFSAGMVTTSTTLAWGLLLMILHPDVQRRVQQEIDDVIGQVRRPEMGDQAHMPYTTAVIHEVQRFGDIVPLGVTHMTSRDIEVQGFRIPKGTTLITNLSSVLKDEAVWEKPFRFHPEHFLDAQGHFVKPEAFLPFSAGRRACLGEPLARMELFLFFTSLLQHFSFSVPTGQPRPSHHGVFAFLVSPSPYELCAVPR

## Cc1nc(C)c(-c2csc(Nc3ccc(C(=O)N4C5CCC4CN(c4ncc(C(F)(F)F)cn4)C5)cn3)n2)s1
[1]
  remaining at 1 h: 105%
[2]
  Tmax: 12 h
[3]
  clearance: 7.22 mL/min/kg
[4]
  bioavailability: 37.9%
[5]
  concentration at 5 h: 21.2 ng/mL
Cytochrome P450 2C19
  INH: > 20 µM
Rattus norvegicus [6]
  Activity: 23.5%
[7]
  fraction unbound: < 0.001
Cytochrome P450 2D6
  INH: > 20 µM
Cytochrome P450 3A4
  INH: > 20 µM
Rattus norvegicus [8]
  Activity: 11%
Rattus norvegicus [9]
  Activity: 15.5%
[10]
  clearance: 31.1 mL/min/kg
[11]
  IC50: 2.1 nM
[12]
  Cmax: 256 ng/mL
[13]
  AUC: 4720 ng·h/mL
[14]
  half-life: 8.1 h
[15]
  concentration at 5 h: 69.4 ng/mL
Cavia porcellus [16]
  Activity: 15.6%
[17]
  remaining at 0.5 h: 69.2%
[18]
  bioavailability: 44%
[19]
  AUC: 900 ng·h/mL
Cytochrome P450 2C9
  INH: > 20 µM
Cytochrome P450 1A2
  INH: > 20 µM
Cavia porcellus [20]
  Activity: 30.6%
[21]
  fraction unbound: 0.003
[22]
  Tmax: 4 h
[23]
  IC50: 0.9 nM
[24]
  half-life: 4.2 h
[25]
  IC50: 1.2 nM
Cavia porcellus [26]
  Activity: 43.4%
Rattus norvegicus [27]
  Activity: 22%
[28]
  fraction unbound: < 0.001
[29]
  remaining at 1 h: 73%
[30]
  remaining at 0.5 h: 94.8%
[31]
  Vd: 4.6 L/kg
[32]
  concentration at 5 h: 209 ng/mL
Salmonella typhimurium
  Activity: Non-Toxic
[33]
  Vd: 11 L/kg
[34]
  Cmax: 55.2 ng/mL
Rattus norvegicus [35]
  Activity: 21.3%
[36]
  remaining at 1 h: 91%
Rattus norvegicus [37]
  Activity: 29.7%
[38]
  IC50: 8.6 nM
